EP4570805A1, “TRICYCLIC COMPOUNDS AND MEDICAL USE THEREOF” (Chia Tai Tianqing Pharmaceutical Group Co., Ltd., priority 2022, dated 2024)

What was measured:
[1] = system: AsPc-1 cells; experiment: Inhibitory activity for AsPc-1 cell proliferation (CCK-8); format: cell-based, human; conditions: Homo sapiens, ASPC1, 72 h incubation
Procedure: AsPc-1 cells in a well-growing state were collected into a centrifuge tube, adjusted to a cell density of 3 × 10^4 cells/mL, and inoculated onto a 96-well plate (100 µL/well). The compounds were added using a nanoliter pipettor such that the final concentrations of the compounds were 5000 nM-0.31 nM (the addition was performed in duplicate). Meanwhile, a control was set. After 72 h of incubation in the cell incubator, the assay reagent CCK-8 (manufacturer: Dojindo Laboratories; 10 µL/well) was added. After 3 h of incubation in the cell incubator, the absorbance was measured at 450 nm on a PerkinElmer Envision microplate reader. A four-parameter analysis was performed, a dose-response curve was fitted, and IC50 was calculated.

[2] = system: Capan-1 cells; experiment: Inhibitory activity for Capan-1 cell proliferation (CCK-8); format: cell-based; conditions: Homo sapiens, CAPAN-1, 120 h, 5 days incubation
Procedure, shortened: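 Capan-1 cells were seeded at 1.5 × 10^4 cells/mL and exposed to compound for 5 days. CCK-8 was added for 4 h, with absorbance read at 450 nm. IC50 came from a four-parameter dose-response fit.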

[3] = In vitro liver microsomal stability, human; format: in vitro ADME; conditions: human liver microsome 0.5 mg/mL, 37 °C
Excerpt: Table 2. Results for in vitro liver microsomal metabolic stability

[4] = In vivo pharmacokinetics in mice; conditions: mouse, plasma, po, ICR mice, IG, 10 mg/kg
Procedure: ICR mice weighing 20 g to 24 g were randomized into groups with 9 mice in each group after 3 to 5 days of acclimatization, and intragastric administration of the experimental compounds was performed at a dose of 10 mg/kg.
The test animals (ICR mice) were fasted for 12 h before administration and fed 4 h after administration, and were given free access to water before, after, and during the experiment.
After intragastric administration, about 0.1 mL of blood was collected via the orbital sinus at 0.25 h (15 min), 0.5 h (30 min), 1 h, 2 h, 4 h, 6 h, 8 h, and 10 h (each mouse was subjected to blood collection at 3 to 4 time points, with 3 mice per time point). Following anticoagulation with EDTA-K2, the blood samples were transferred to a centrifuge within 30 min and then centrifuged at 4000 rpm for 10 min at 4 °C to separate the plasma. All the plasma samples were collected and immediately stored at -20 °C for testing.
20 µL of the plasma sample to be tested and the standard curve sample were pipetted, and 400 µL of acetonitrile solution containing an internal standard (20 ng/mL) was added. The mixture was shaken and mixed well for 10 min, and centrifuged at 13000 rpm for 10 min. 50 µL of the supernatant was taken and diluted with 100 µL of ultrapure water. After being mixed well, 0.5 µL of the resulting sample was subjected to LC/MS/MS, and a chromatogram was recorded.
Oral exposure of the compounds of the present disclosure was evaluated by in vivo pharmacokinetic experiments in mice.

[5] = microsomes, 1 h
Procedure: Liver microsome incubation samples (species: human, monkey, rat, and mouse) were prepared by mixing a PBS buffer (pH 7.4), a liver microsome solution (0.5 mg/mL), a test compound, and an NADPH + MgCl2 solution and incubated at 37 °C and 300 rpm for 1 h. Zero-hour samples were prepared by mixing a PBS buffer (pH 7.4), a liver microsome solution (0.5 mg/mL), and a test compound. An acetonitrile solution containing an internal standard was added to the samples, and the supernatants were prepared by protein precipitation, diluted, and then assayed by LC/MS/MS.

C#Cc1c(F)ccc2cc(O)cc(-c3nc4c5c(nc(OCC67CCCN6CCC7)nc5c3F)N(C(C)c3cccnc3N)[C@@H](C)CO4)c12 (single isomer, unassigned) [Example 97]
IC50 [1]: ≤ 100 nM | IC50 [2]: < 100 nM | The remaining amount % (T = 60 min) (0.5 mg/mL) Human liver microsome [3]: >40%

C#Cc1c(F)ccc2cc(O)cc(-c3nc4c5c(nc(O[C@@H](C)[C@@H]6CCCN6C)nc5c3F)N(C(C)c3cccnc3N)[C@@H](C)CO4)c12 (single isomer, unassigned) [Example 107]
IC50 [2]: < 100 nM | The remaining amount % (T = 60 min) (0.5 mg/mL) Human liver microsome [3]: >40%

CC(c1cccnc1N)N1c2nc(OC[C@@H]3CCCN3C)nc3c(F)c(-c4cc(N)cc(Cl)c4C(F)(F)F)nc(c23)OC[C@@H]1C (single isomer, unassigned) [Example 162]
IC50 [2]: < 100 nM | The remaining amount % (T = 60 min) (0.5 mg/mL) Human liver microsome [3]: >40% | Cmax [4]: 38.4 ng/mL | Tmax [4]: 1 h | AUC(0-t) at 6 h ([4]; gavage parameters were fitted to 6 h): 156 ng·h/mL

C#Cc1c(F)ccc2cc(O)cc(-c3nc4c5c(nc(OCCCN6CCNCC6)nc5c3F)N(C(C)c3cccnc3N)[C@@H](C)CO4)c12 (single isomer, unassigned) [Example 140]
IC50 [2]: < 100 nM | The remaining amount % (T = 60 min) (0.5 mg/mL) Mouse liver microsome [5]: >60%
